Reference: patent US10683293B2, “Optionally fused heterocyclyl-substituted derivatives of pyrimidine useful for the treatment of inflammatory, metabolic, oncologic and autoimmune diseases” (NUEVOLUTION A/S, priority 2014, dated 2020)

Assays:
[1] = target: T1, human RORγt (Ligand Binding Domain) (Homo sapiens, UniProt P51449); test: Fluorescence Polarization (FP) Assay; settings: 100 nM human RORγt LBD, 25 nM TAMRA probe, values are activity range bounds
T1 construct: purchased Crelux (Planegg, Germany) batch no PC5032-1
T1 sequence (P51449 269-508 limits assumed): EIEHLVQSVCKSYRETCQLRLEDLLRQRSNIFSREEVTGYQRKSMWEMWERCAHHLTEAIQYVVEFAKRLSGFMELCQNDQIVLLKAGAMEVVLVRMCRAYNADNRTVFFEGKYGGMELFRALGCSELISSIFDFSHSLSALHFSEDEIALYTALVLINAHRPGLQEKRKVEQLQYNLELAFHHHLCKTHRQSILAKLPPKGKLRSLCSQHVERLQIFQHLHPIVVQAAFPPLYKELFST
Method in brief: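 In vitro fluorescence polarization binding assay on the RORγt ligand-binding pocket. A TAMRA-labelled RORγt ligand probe (MW 910 g/mol) was used, with DMSO as negative control.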

[2] = target: T2, ligand binding domain of human RORγ (Homo sapiens, UniProt P51449); test: RORγ Reporter Assay (Gal4); assay type: cell-based; settings: for inhibition at 1 µM: HEK-293T, read-out: Gal4 activity range @ 1 μM (% inhibition); for inhibition at 1 µM / Gal4 activity range @ 1 μM (% inhibition): 1 μM test compound, HEK293t RORγ reporter cells, 24 hour; for Gal4 activity range @ 0.1 μM (% inhibition): RORγ Reporter Assay (Gal4), HEK293t reporter cells, compound at 0.1 μM, values are activity range bounds
T2 construct: host or cells: HEK293t
T2 sequence (P51449 269-508 limits assumed): T1 sequence (P51449 269-508 limits assumed)
Method in brief: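 HEK293t cells expressing Gal4 DBD–human RORγ LBD hybrid with Gal4-UAS firefly luciferase reporter; compounds at final 1,000 nM and 100 nM (0.1% DMSO), triplicate, medium with 10% charcoal-stripped FBS, 24 h at 37 °C. Luminescence read; percent reduction of RORγ activity calculated versus vehicle-only wells.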

SMILES | IC50 [1] [nM] | inhibition at 1 µM [2] [%] | Gal4 activity range @ 0.1 μM (% inhibition) [2] [% inhibition] | Gal4 activity range @ 1 μM (% inhibition) [2] [%]
CNC(=O)CC1(CNc2ncnc(N(Cc3ccc(C(F)(F)F)cc3)C3CC3)c2F)CCOCC1 [Example A80, 2-[4-[[[6-[cyclopropyl-[[4-(trifluoromethyl)phenyl]methyl]amino]-5-fluoro-pyrimidin-4-yl]amino]methyl]tetrahydropyran-4-yl]-N-methyl-acetamide] | < 500 | > 80 | >20 | –
COc1cccc(CN(c2ncnc(NCc3ccc(CC(N)=O)cc3)c2F)C2CC2)c1 [Example A55, 2-[4-[[[6-[cyclopropyl-[(3-methoxyphenyl)methyl]amino]-5-fluoro-pyrimidin-4-yl]amino]methyl]phenyl]acetamide] | < 500 | > 0 | – | –
CCN(CC1COc2ccccc2O1)c1ncnc(NCc2ccc(CC(N)=O)cc2)c1F (centres unmarked) [Example A145, 2-[4-[[[6-[2,3-dihydro-1,4-benzodioxin-3-ylmethyl(ethyl)amino]-5-fluoro-pyrimidin-4-yl]amino]methyl]phenyl]acetamide] | < 500 | > 50 | >0 | –
NC(=O)Cc1ccc(CNc2ncnc(N(Cc3c(Cl)cccc3Cl)C3CC3)c2F)cc1 [Example A77, 2-[4-[[[6-[cyclopropyl-[(2,6-dichlorophenyl)methyl]amino]-5-fluoro-pyrimidin-4-yl]amino]methyl]phenyl]acetamide] | < 500 | > 50 | >20 | –
Cc1ccc(CNc2ncnc(N(Cc3ccc(C(F)(F)F)cc3)C3CC3)c2F)cn1 [Example A1, N4-cyclopropyl-5-fluoro-N6-[(6-methyl-3-pyridyl)methyl]-N4-[[4-(trifluoromethyl)phenyl]methyl] pyrimidine-4,6-diamine] | < 1000 | > 80 | >20 | –
NC(=O)Cc1ccc(CNc2ncnc(N(Cc3cc(C(F)(F)F)ccn3)C3CC3)c2F)cc1 [Example A178, 2-[4-[[[6-[cyclopropyl-[[4-(trifluoromethyl)-2-pyridyl]methyl]amino]-5-fluoro-pyrimidin-4-yl]amino]methyl]phenyl]acetamide] | < 500 | > 20 | >0 | –
NC(=O)Cc1ccc(CNc2ncnc(N(C3CC3)C(c3ccc(C(F)(F)F)cc3)C3CCC3)c2F)cc1 (centres unmarked) [Example A17, 2-[4-[[[6-[[cyclobutyl-[4-(trifluoromethyl)phenyl]methyl]-cyclopropyl-amino]-5-fluoro-pyrimidin-4-yl]amino]methyl]phenyl]acetamide] | < 2000 | > 50 | >20 | –
NC(=O)CC1CC(CNc2ncnc(N(Cc3ccc(C(F)(F)F)cc3)C3CC3)c2F)C1 (centres unmarked) [Example A95, 2-[3-[[[6-[cyclopropyl-[[4-(trifluoromethyl)phenyl]methyl]amino]-5-fluoro-pyrimidin-4-yl]amino]methyl]cyclobutyl] acetamide] | < 1000 | > 80 | >20 | –
O=C(O)C[C@@H](CCc1ccccc1)Nc1ncnc(N(Cc2ccc(C(F)(F)F)cc2)C2CC2)c1F [Example A181, (3R)-3-[[6-[cyclopropyl-[[4-(trifluoromethyl)phenyl]methyl]amino]-5-fluoro-pyrimidin-4-yl]amino]-5-phenyl-pentanoic acid] | < 500 | > 80 | >0 | –
NC(=O)Cc1ccc(CNc2ncnc(N(Cc3ccc(C(F)(F)F)cn3)C3CC3)c2F)cc1 [Example A85, 2-[4-[[[6-[cyclopropyl-[[5-(trifluoromethyl)-2-pyridyl]methyl]amino]-5-fluoro-pyrimidin-4-yl]amino]methyl]phenyl]acetamide] | < 500 | > 80 | >50 | –
CS(=O)(=O)N1CCC(C2(Nc3ncnc(N(Cc4ccc(C(F)(F)F)cc4)C4CC4)c3F)CC2)CC1 [Example A165, N6-cyclopropyl-5-fluoro-N4-[1-(1-methylsulfonyl-4-piperidyl)cyclopropyl]-N6-[[4-(trifluoromethyl)phenyl]methyl] pyrimidine-4,6-diamine] | < 500 | > 80 | >50 | –
CCCn1nc(C)cc1CN(C)c1ncnc(NCc2ccc(CC(N)=O)cc2)c1F [Example A124, 2-[4-[[[5-fluoro-6-[methyl-[(5-methyl-2-propyl-pyrazol-3-yl)methyl]amino]pyrimidin-4-yl]amino]methyl]phenyl]acetamide] | < 500 | – | >0 | >20

Other lines, results leading:

IC50 [1] [nM] | inhibition at 1 µM [2] [%] | Gal4 activity range @ 0.1 μM (% inhibition) [2] [% inhibition] | Gal4 activity range @ 1 μM (% inhibition) [2] [%] | SMILES
< 500 | > 80 | >80 | – | CC(c1ccc(C(F)(F)F)cc1)N(c1ncnc(NCC2CCN(S(C)(=O)=O)CC2)c1F)C1CC1 (centres unmarked) [Example A73, N4-cyclopropyl-5-fluoro-N6-[(1-methylsulfonyl-4-piperidyl)methyl]-N4-[1-[4-(trifluoromethyl)phenyl]ethyl] pyrimidine-4,6-diamine]
< 1000 | > 80 | >20 | – | Fc1c(NCC2CCOCC2)ncnc1N(Cc1ccc(C(F)(F)F)cc1)C1CC1 [Example A12, N4-cyclopropyl-5-fluoro-N6-(tetrahydropyran-4-ylmethyl)-N4-[[4-(trifluoromethyl)phenyl]methyl] pyrimidine-4,6-diamine]
< 500 | > 80 | >80 | – | CS(=O)(=O)Nc1ccc(CNc2ncnc(N(Cc3ccc(C(F)(F)F)cc3)C3CC3)c2F)cc1 [Example A59, N-[4-[[[6-[cyclopropyl-[[4-(trifluoromethyl)phenyl]methyl]amino]-5-fluoro-pyrimidin-4-yl]amino]methyl]phenyl]methane-sulfonamide]
< 500 | > 80 | >50 | – | O=S1(=O)CCC(O)(CNc2ncnc(N(Cc3ccc(C(F)(F)F)cc3)C3CC3)c2F)CC1 [Example A8, 4-[[[6-[cyclopropyl-[[4-(trifluoromethyl)phenyl]methyl]amino]-5-fluoro-pyrimidin-4-yl]amino]methyl]-1,1-dioxo-thian-4-ol]
< 500 | > 50 | >20 | – | NC(=O)Cc1ccc(CNc2ncnc(N(Cc3ccccc3)C3CC3)c2F)cc1 [Example A42, 2-[4-[[[6-[benzyl(cyclopropyl)amino]-5-fluoro-pyrimidin-4-yl]amino]methyl]phenyl]acetamide]
< 500 | > 80 | >50 | – | Fc1c(NCc2ccc(Cc3nnn[nH]3)cc2)ncnc1N(Cc1ccc(C(F)(F)F)cc1)C1CC1 [Example T1, N6-cyclopropyl-5-fluoro-N4-[[4-(1H-tetrazol-5-ylmethyl)phenyl]methyl]-N6-[[4-(trifluoromethyl)phenyl]methyl] pyrimidine-4,6-diamine]
< 500 | – | >0 | >50 | CCCn1nc(C)cc1CN(C)c1ncnc(NCc2ccc(CC(N)=O)cc2)c1F [Example A68, 2-[4-[[[5-fluoro-6-[methyl-[(5-methyl-2-propyl-pyrazol-3-yl)methyl]amino]pyrimidin-4-yl]amino]methyl]phenyl]acetamide]
< 500 | > 80 | >20 | – | CN(Cc1cccc(-n2cccn2)c1)c1ncnc(NCc2ccc(CC(N)=O)cc2)c1F [Example A58, 2-[4-[[[5-fluoro-6-[methyl-[(3-pyrazol-1-ylphenyl)methyl]amino]pyrimidin-4-yl]amino]methyl]phenyl]acetamide]
< 500 | > 20 | >0 | – | COC(=O)CC(c1ccc(C(F)(F)F)cc1)N(c1ncnc(NCc2ccc(CC(N)=O)cc2)c1F)C1CC1 (centres unmarked) [Example A16, methyl 3-[[6-[[4-(2-amino-2-oxo-ethyl)phenyl]methylamino]-5-fluoro-pyrimidin-4-yl]-cyclopropyl-amino]-3-[4-(trifluoromethyl)phenyl]propanoate]
